Test results reported in patent publication US20060019241A1, “Na+ and CI-coupled transport system for endogenous opioid peptides” (priority 2004, published 2006).
“Also recorded” adds a separate entry of the source.

Key:
[1] = tested on: deltorphin II transport system in control ARPE-19 cells; experiment: Inhibition of [^3H]deltorphin II uptake in control ARPE-19 cells; assay type: cell-based, human; conditions: [^3H]deltorphin II 50 nM, 30 minutes, NaCl, peptide/antagonist 1 mM; for [^3H] Deltorphin II uptake: control ARPE-19 cells (pcDNA vector alone); for [^3H] Deltorphin II uptake (%) of control: control ARPE-19 cells, control = 100
Description: (§1) Stable transfection of ARPE-19 cells with pcDNA-Tat cDNA. The pGEM2-Tat cDNA construct contained as the insert a 295 basepair (bp) fragment encoding the first exon of HIV-1 Tat gene joined to a 145 bp pET3A transcription terminator. The entire insert (440 bp) was removed from the construct by digestion with PstI and EcoRI and ligated into the multiple cloning region of pcDNA3.1 (−) vector at PstI/EcoRI site so that the insert is downstream of the cytomegalovirus (CMV) promoter. The resultant construct was sequenced to confirm the orientation of the insert. This construct was electroporated into ARPE-19 cells and the stably transfected cell clones were isolated in the presence of Geneticin (G418). To serve as a control, empty pcDNA3.1 vector was electroporated into ARPE-19 cells in an identical manner and the clones harboring the vector were selected by G418 resistance.
(§2) Uptake measurements in control ARPE-19 cells and Tat-ARPE-19 cells. Control ARPE-19 cells and Tat-ARPE-19 cells were maintained in 75-cm^2 culture flasks in Dulbecco's modified Eagle's medium/F12 medium (1:1, volume/volume (v/v)) in the presence of fetal bovine serum (10%) and G418 (100 μg/ml). For uptake measurements, cells were released by trypsin treatment and seeded in 24-well culture plates at an initial density of 0.1×10^6 cells/well. The culture medium was replaced with fresh medium on the second day following the initial seeding and uptake measurements were made on the third day. […] After incubation at 37° C. for a desired time, uptake was terminated by the removal of the medium and washing of the cells with ice-cold uptake buffer. The cells were then dissolved in 1% SDS in 0.2 M NaOH and used for measurement of radioactivity. The uptake buffer in most experiments was 25 mM Hepes/Tris (pH 7.5), containing 140 mM NaCl, 5.4 mM KCl, 1.8 mM CaCl2, 0.8 mM MgSO4 and 5 mM glucose.
(§3) Substrate specificity of the deltorphin transport system. […] These peptides consisted of 4-13 amino acids.

[2] = tested on: deltorphin II transport system in Tat-ARPE-19 cells; experiment: Inhibition of [^3H]deltorphin II uptake in Tat-ARPE-19 cells; assay type: cell-based, human; conditions: for competition with deltorphin for the uptake process (in words): Tat-ARPE-19 / RPE cells, compound 1 mM; for competition with deltorphin for the uptake process (in words) / [^3H] Deltorphin II uptake / [^3H] Deltorphin II uptake (%) of control: [^3H]deltorphin II 50 nM; for [^3H] Deltorphin II uptake / [^3H] Deltorphin II uptake (%) of control: Tat-ARPE-19 cells, 30 minutes, NaCl, inhibitor 1 mM; for [^3H] Deltorphin II uptake (%) of control: control = 100
Description: as §1, §2
When the influence of Na^+ on the uptake process was investigated, the concentration of NaCl in the uptake buffer was adjusted, as desired, by isoosmotically replacing NaCl with N-methyl-D-glucamine chloride. To assess the influence of Cl^− on the uptake process, the composition of the uptake medium was modified by replacing KCl and CaCl2 with equimolar concentrations of potassium gluconate and calcium gluconate and the concentration of NaCl was adjusted, as desired, by iso-osmotically replacing NaCl with sodium gluconate. Saturation kinetics were analysed by fitting the data to the Michaelis-Menten equation. The Michaelis-Menten constant, Kt, was calculated by non-linear regression analysis and then confirmed by linear regression. Na^+- and Cl^−-activation kinetics were analyzed by fitting the data to the Hill equation and the Hill coefficients for Na^+ and Cl^− (h; the number of Na^+ and Cl^− ions involved in the activation process) and the K0.5 values (the concentration of Na^+ and Cl^−-needed for half-maximal activation) were determined from the analysis. Again, these constants were first calculated by non-linear regression methods and subsequently confirmed by linear regression methods. Experiments were repeated three times in duplicate and the results are given as means±S.E.M.
as §3
Relative affinities of endogenous opioid peptides for the transport system.

[3] = tested on: enkephalin/endorphin transport system in SK—N—SH cells; experiment: [^3H]deltorphin II uptake in SK—N—SH cells, effect of peptides and amino acids; assay type: cell-based, human; conditions: for effect on [^3H]deltorphin II uptake (in words): test substance 1 mM; for IC50: read-out: affinity for the transport system (concentration-dependent inhibition of [^3H]deltorphin II uptake), [^3H]deltorphin II 25 nM; for influence on kinetics of deltorphin II uptake / type of inhibition: 250 μM L-Lysine
Method: as §2
Since enkephalins and endorphins are relevant to pain perception and to further provide evidence in support of a role for the transport system in opioidergic neurotransmission, the human neuronal cell line SK—N—SH was tested for expression of the transport system. […] Unless otherwise specified, procedures are as detailed in Example 1.
The concentration of enkephalins and dynorphins was 1 mM.
Finally, the relative affinity of various enkephalins and dynorphins for the transport system in SK—N—SH cells was determined.
To the further characterize the opioid transport of the present invention, various specific peptides that act as positive modulators of the enkephalin/endorphin transport system in the human neuronal cell line SK—N—SH were identified. Unless otherwise specified, procedures are as detailed in Example 1. […] Uptake was measured in the presence of NaCl for 30 minutes. The concentration of the dipeptides was 1 mM.
Uptake was measured in the presence of NaCl for 30 minutes. The concentration of the tripeptides was 1 mM.
Unless otherwise specified, procedures are as described in more detail in Example 1.
The dose-response relationship for the inhibition of the enkephalin/endorphin transport system by L-Lysine and its methyl and ethyl esters is shown in FIG. 15.

[4] = tested on: deltorphin II uptake inducible by rMC-1 mRNA in X. laevis oocytes; experiment: Deltorphin II uptake in X. laevis oocytes injected with rMC-1 mRNA; assay type: cell-based, rat; conditions: X. laevis oocytes injected with rMC-1 poly(A)+ mRNA, deltorphin II 125 nM
Method: Therefore, functional expression of the deltorphin II transport system in X. laevis oocytes will be used to clone this transport system. […] Poly(A)+ mRNA was prepared from this cell line for functional expression studies in X. laevis oocytes.

SK—N—SH cells = experiment: L-lysine uptake in SK—N—SH cells; assay type: cell-based, human
Method: Whether or not L-lysine is a transportable substrate for the opioid peptide transport system was tested. For this, uptake of L-lysine was studied and the influence of Na^+ and opioid peptides assessed in SK—N—SH cells.

[5] = tested on: opioid peptide transport system in rMC-1 cells; experiment: Opioid peptide transport in rMC-1 cells; assay type: cell-based, rat

Compound | [^3H] Deltorphin II uptake [1] | [^3H] Deltorphin II uptake (%) of control [1] | [^3H] Deltorphin II uptake [2] | [^3H] Deltorphin II uptake (%) of control [2] | IC50 [3] | other results
O=C1CC[C@@]2(O)[C@H]3Cc4ccc(O)c5c4[C@@]2(CCN3CC2CC2)[C@H]1O5 [Naltrexone] | 1.12 ± 0.02 pmol/mg protein/30 min | 104% | – | – | – | –
Gly-Gly-Gly | – | – | 9.68 ± 0.39 pmol/mg protein/30 min | 125% | – | competition with deltorphin for the uptake process (in words) [2]: did not compete; also recorded: significant stimulation; effect on [^3H]deltorphin II uptake (in words) ([3]; [^3H]deltorphin II 25 nM, NaCl, 30 minutes): ability to stimulate the uptake
C[C@]12CC[C@@H]3c4ccc(OS(=O)(=O)O)cc4CC[C@H]3[C@@H]1CCC2=O [estrone-3-sulfate] | – | – | – | – | – | inhibition of mRNA-induced deltorphin II uptake (in words) [4]: only a slight inhibition; also recorded: only slightly inhibited
YGGFLR [Dynorphin A (1-6), Tyr-Gly-Gly-Phe-Leu-Arg] | 0.06 ± 0.001 pmol/mg protein/30 min | 5% | 0.12 ± 0.00 pmol/mg protein/30 min | 2% | 3.5 ± 0.4 µM | –
YGGFMRGL [[Arg^6, Gly^7, Leu^8[ Met-enkephalin] | 0.04 ± 0.001 pmol/mg protein/30 min | 4% | 0.09 ± 0.01 pmol/mg protein/30 min | 1% | – | –
NCCCC[C@H](N)C(=O)O [L-Lys, L-lysine] | – | – | – | – | – | L-lysine uptake: influence of Na^+ and opioid peptides; transportable substrate or not (SK—N—SH cells): not Na^+-dependent and is insensitive to opioid peptides; also recorded: not a transportable substrate; interaction with the opioid peptide transport system (in words) [5]: inhibited; also recorded: not a transportable substrate but a blocker; interaction with the opioid peptide transport system (in words, summary of Examples) [3]: inhibited; also recorded: not a transportable substrate but a blocker; influence on kinetics of deltorphin II uptake / type of inhibition ([3]; listed as L-Lysine): decreased the maximal velocity of the transport system without affecting the affinity for deltorphin II; also recorded: decreasing the maximal velocity without affecting the substrate affinity; influence on kinetics of deltorphin II uptake / type of inhibition ([3]; listed as L-lysine): non-competitive; Deltorphin II uptake ([3]; [^3H]deltorphin II 25 nM, NaCl, 30 minutes, compound 1 mM): 0.26 ± 0.01 pmol/30 min/mg protein; effect on [^3H]deltorphin II uptake (in words) ([3]; [^3H]deltorphin II 25 nM, NaCl, 30 minutes, listed as L-Lysine): significant inhibition; also recorded: most potent inhibitors; effect on [^3H]deltorphin II uptake (in words) ([3]; [^3H]deltorphin II 25 nM, NaCl, 30 minutes, listed as L-lysine): greatest inhibition; also recorded: inhibit the uptake to a marked extent; Ki ([3]; read-out: Ki for inhibition of deltorphin II uptake, dose-response studies): 160 ± 19 µM
Tyr-Gly-Gly-Phe-Leu [Leu-enkephalin] | – | – | 0.15 ± 0.01 pmol/mg protein/30 min | 2% | 7.8 ± 1.2 µM | competition with deltorphin for the uptake process (in words) [2]: marked inhibition
C=CCN1CC[C@]23c4c5ccc(O)c4O[C@H]2C(=O)CC[C@@]3(O)[C@H]1C5 [Naloxone] | 1.01 ± 0.00 pmol/mg protein/30 min | 94% | – | – | – | –
Tyr-Gly-Gly-Phe-Leu-Arg-Arg-IIe-Arg-Pro-Lys-Leu-Lys (YGGFLRRIRPKLK) [Dynorphin A (1-13)] | 0.04 ± 0.001 pmol/mg protein/30 min | 4% | 0.07 ± 0.01 pmol/mg protein/30 min | 1% | 0.15 ± 0.01 µM | fold higher affinity than the shorter dynorphins (six to nine amino acids) ([2]; RPE cells): ~10 fold
Tyr-Gly-Gly-Phe-Met [Met-enkephalin] | 0.06 ± 0.004 pmol/mg protein/30 min | 5% | 0.50 ± 0.01 pmol/mg protein/30 min | 6% | 10.7 ± 3.1 µM | competition with deltorphin for the uptake process (in words) [2]: marked inhibition
YGGFLRRQF [Dynorphin B (1-9)] | 0.06 ± 0.000 pmol/mg protein/30 min | 5% | 0.08 ± 0.01 pmol/mg protein/30 min | 1% | – | inhibition of mRNA-induced deltorphin II uptake (in words) ([4]; listed as dynorphin B 1-9): completely inhibitable; inhibition of mRNA-induced deltorphin II uptake (in words) ([4]; listed as dynorphin B1-9): completely inhibited
YGGFMRF [[Arg^6, Phe^7] Met-enkephalin, Tyr-Gly-Gly-Phe-Met-Arg-Phe] | 0.05 ± 0.001 pmol/mg protein/30 min | 4% | 0.11 ± 0.01 pmol/mg protein/30 min | 1% | – | –
YGGFLRR [Dynorphin A (1-7), Tyr-Gly-Gly-Phe-Leu-Arg-Arg] | 0.05 ± 0.002 pmol/mg protein/30 min | 5% | 0.10 ± 0.02 pmol/mg protein/30 min | 1% | 4.6 ± 1.1 µM | –
